For experiment [1], the target named is Ribosomal protein S6 kinase alpha-2 (Homo sapiens) (UniProt Q15349). Description: Selectivity interaction (KinomeScan (DiscoverX)) EUB0000607a RPS6KA2. Particulars: at 10 µM.
The target of experiment [2] is Phosphatidylinositol 4,5-bisphosphate 3-kinase catalytic subunit gamma isoform (Homo sapiens) (UniProt P48736). Description: Selectivity interaction (Kinase panel (Invitrogen)) EUB0000639a PIK3CG. The conditions noted are these: at 200 nM.
Experiment [3] concerns the target Tyrosine-protein kinase Yes (Homo sapiens) (UniProt P07947). Briefly: Selectivity interaction (Kinase panel (Invitrogen)) EUB0000639a YES1. Particulars: at 200 nM.
The target of experiment [4] is T1, Serine/threonine-protein kinase Nek1 (Homo sapiens) (UniProt Q96PY6).
T1 sequence (whole entry): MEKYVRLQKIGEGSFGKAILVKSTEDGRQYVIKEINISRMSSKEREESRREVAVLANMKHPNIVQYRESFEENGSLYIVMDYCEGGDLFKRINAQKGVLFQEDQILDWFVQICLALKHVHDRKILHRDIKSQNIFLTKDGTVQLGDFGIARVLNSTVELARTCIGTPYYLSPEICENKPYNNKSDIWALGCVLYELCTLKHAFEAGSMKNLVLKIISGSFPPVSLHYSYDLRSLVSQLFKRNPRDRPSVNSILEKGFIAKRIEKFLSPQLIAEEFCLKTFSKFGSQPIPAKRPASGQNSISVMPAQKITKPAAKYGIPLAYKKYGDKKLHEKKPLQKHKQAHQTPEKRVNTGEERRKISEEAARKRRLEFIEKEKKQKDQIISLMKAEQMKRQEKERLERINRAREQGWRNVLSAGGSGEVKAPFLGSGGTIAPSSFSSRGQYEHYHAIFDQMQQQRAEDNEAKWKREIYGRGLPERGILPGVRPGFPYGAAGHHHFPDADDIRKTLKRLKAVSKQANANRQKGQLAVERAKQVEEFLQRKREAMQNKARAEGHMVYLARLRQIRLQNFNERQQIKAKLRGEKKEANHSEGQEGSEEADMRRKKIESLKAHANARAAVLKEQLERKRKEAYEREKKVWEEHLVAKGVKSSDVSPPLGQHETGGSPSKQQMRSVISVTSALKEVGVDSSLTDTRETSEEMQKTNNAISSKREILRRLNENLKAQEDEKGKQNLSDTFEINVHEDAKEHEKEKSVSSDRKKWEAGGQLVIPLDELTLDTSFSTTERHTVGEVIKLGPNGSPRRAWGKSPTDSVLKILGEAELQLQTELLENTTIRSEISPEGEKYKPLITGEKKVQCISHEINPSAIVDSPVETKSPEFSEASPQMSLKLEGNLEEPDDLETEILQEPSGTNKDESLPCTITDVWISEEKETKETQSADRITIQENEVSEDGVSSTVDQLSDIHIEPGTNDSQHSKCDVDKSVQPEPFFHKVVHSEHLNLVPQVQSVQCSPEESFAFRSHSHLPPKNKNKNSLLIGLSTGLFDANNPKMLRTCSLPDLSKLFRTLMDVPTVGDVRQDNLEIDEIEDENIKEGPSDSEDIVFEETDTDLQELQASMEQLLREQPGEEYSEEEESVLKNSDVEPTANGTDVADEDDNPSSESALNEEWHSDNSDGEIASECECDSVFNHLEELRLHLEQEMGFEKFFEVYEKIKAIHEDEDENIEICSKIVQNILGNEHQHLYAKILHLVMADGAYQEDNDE
Description: Selectivity interaction (Kinase panel (Invitrogen)) EUB0000639a NEK1. The conditions noted are these: at 200 nM.

Experiment [5] addresses Serine/threonine-protein kinase MARK2 (Homo sapiens) (UniProt Q7KZI7). Briefly: Selectivity interaction (ActivX KiNativ screen (kinase selectivity in THP-1 cell lysates)) EUB0000639a MARK2. It is filed as subcellular. Particulars: lysate, at 0.01 µM.
For experiment [6], the target named is T2, Ephrin type-A receptor 8 (Homo sapiens) (UniProt P29322).
T2 sequence (whole entry): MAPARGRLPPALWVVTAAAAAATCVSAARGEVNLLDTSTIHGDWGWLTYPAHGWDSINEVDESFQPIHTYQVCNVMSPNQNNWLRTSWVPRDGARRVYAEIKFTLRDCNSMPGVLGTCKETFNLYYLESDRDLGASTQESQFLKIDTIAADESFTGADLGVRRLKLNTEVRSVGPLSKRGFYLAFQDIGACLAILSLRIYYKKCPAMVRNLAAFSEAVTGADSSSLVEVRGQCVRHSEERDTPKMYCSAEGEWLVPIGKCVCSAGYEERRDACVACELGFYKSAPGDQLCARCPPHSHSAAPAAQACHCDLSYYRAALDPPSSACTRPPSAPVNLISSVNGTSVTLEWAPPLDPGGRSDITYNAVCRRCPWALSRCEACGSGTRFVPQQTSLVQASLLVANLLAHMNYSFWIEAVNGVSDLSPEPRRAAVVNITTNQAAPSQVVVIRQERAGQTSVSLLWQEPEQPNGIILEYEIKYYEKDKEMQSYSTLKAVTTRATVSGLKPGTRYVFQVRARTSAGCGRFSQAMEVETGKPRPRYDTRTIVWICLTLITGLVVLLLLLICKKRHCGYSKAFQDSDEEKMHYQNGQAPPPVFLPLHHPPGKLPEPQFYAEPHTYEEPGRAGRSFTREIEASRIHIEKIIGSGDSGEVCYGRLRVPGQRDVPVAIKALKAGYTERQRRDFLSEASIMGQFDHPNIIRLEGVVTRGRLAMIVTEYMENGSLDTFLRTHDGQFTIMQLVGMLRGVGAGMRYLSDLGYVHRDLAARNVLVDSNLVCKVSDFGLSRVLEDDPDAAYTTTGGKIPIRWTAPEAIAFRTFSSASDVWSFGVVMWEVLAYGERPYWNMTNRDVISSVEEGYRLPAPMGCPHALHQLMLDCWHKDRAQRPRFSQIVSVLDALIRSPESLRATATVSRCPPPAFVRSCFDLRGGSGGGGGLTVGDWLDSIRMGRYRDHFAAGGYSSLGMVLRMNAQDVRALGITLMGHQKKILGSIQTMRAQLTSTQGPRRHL
Briefly: Selectivity interaction (KinomeScan (DiscoverX)) EUB0000092b EPHA8. The conditions noted are these: at 10 µM.

The next experiment addresses Insulin receptor (Homo sapiens, UniProt P06213). Description: Selectivity interaction (KinomeScan (DiscoverX)) EUB0000229b INSR. Particulars: at 10 µM.

Insulin receptor, sequence (P06213 28-758 limits assumed): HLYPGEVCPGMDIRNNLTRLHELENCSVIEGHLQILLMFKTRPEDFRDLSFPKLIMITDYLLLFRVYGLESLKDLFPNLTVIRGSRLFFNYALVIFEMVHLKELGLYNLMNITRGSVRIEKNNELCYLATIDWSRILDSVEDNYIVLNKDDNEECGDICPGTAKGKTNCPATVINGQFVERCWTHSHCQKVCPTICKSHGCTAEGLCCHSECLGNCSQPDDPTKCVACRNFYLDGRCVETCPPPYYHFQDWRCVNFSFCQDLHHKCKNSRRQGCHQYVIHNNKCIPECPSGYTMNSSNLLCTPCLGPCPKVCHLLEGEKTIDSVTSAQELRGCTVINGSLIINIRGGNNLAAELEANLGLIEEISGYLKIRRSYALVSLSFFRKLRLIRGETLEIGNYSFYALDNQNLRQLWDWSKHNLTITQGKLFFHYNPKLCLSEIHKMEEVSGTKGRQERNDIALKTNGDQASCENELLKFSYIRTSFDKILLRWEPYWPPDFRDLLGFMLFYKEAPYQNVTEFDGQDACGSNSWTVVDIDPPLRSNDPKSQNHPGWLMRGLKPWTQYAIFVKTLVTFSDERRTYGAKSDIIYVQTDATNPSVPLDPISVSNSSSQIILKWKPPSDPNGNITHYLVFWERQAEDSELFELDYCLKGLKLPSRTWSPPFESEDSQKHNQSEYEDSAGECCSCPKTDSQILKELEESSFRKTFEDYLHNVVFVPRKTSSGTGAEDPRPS
Insulin receptor, sequence (P06213 763-1382 limits assumed): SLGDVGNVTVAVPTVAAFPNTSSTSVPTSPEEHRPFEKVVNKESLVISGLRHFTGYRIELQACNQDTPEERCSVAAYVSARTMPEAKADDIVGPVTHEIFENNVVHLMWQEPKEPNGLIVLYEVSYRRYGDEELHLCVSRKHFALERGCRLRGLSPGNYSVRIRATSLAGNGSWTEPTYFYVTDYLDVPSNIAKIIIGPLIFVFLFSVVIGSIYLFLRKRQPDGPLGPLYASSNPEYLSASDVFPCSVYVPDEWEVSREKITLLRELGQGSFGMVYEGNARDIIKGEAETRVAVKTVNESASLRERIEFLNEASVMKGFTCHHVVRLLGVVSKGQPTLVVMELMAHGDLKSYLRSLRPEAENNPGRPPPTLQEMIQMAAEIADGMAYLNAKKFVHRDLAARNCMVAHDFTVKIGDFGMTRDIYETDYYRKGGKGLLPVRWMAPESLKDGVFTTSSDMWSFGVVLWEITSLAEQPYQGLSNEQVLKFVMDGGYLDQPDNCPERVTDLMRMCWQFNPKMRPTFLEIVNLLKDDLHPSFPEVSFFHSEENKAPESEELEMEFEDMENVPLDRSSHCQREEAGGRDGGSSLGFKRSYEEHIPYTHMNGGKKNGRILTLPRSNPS
Ribosomal protein S6 kinase alpha-2 (Homo sapiens), sequence (Q15349 whole entry, canonical isoform): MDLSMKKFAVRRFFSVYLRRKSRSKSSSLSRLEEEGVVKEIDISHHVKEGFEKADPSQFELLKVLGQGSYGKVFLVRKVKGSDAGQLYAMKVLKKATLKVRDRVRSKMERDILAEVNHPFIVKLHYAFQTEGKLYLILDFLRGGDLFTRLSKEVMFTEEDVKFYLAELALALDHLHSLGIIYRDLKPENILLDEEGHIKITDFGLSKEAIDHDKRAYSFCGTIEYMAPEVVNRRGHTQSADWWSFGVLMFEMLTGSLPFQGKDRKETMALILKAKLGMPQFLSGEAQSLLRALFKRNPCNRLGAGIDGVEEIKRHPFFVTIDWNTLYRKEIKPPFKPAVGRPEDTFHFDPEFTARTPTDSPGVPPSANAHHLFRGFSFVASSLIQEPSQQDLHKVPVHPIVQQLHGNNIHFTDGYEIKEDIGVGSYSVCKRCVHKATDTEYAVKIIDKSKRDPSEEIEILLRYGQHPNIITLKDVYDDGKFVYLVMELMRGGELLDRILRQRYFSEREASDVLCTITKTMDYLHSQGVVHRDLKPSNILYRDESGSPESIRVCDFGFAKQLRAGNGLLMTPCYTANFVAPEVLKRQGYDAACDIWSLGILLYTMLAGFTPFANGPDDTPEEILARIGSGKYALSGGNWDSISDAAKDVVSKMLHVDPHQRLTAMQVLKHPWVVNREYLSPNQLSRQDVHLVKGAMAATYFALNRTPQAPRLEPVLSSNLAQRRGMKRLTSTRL
Phosphatidylinositol 4,5-bisphosphate 3-kinase catalytic subunit gamma isoform (Homo sapiens), sequence (P48736 whole entry, looked up, canonical isoform): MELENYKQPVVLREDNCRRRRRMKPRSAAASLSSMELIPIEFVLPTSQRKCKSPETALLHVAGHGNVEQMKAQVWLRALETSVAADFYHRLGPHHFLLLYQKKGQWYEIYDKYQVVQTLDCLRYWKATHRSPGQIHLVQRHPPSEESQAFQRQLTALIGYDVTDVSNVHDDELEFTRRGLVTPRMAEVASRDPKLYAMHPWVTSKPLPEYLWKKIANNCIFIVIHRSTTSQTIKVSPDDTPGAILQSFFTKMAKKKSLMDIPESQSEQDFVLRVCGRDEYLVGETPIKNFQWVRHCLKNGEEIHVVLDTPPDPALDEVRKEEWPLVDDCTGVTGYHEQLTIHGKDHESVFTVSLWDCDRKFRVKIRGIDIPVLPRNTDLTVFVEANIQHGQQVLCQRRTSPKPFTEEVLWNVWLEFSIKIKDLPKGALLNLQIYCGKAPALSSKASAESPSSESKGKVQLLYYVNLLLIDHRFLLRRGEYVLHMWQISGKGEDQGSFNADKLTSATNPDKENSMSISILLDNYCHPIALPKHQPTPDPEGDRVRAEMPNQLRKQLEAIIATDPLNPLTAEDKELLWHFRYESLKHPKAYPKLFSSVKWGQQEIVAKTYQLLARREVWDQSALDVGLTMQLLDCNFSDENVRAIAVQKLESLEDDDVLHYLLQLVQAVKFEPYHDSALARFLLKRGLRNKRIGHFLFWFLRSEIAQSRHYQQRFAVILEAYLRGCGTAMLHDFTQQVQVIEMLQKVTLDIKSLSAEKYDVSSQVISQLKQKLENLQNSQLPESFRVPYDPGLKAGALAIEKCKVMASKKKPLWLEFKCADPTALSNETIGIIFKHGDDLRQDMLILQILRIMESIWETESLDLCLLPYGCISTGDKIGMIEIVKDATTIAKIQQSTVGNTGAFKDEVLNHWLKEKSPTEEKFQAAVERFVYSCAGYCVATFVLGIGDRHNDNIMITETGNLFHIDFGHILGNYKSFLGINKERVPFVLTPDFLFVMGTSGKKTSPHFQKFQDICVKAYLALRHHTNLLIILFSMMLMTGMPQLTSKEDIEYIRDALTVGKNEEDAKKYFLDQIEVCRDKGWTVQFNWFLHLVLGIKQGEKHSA
Tyrosine-protein kinase Yes (Homo sapiens), sequence (P07947 2-543 limits assumed): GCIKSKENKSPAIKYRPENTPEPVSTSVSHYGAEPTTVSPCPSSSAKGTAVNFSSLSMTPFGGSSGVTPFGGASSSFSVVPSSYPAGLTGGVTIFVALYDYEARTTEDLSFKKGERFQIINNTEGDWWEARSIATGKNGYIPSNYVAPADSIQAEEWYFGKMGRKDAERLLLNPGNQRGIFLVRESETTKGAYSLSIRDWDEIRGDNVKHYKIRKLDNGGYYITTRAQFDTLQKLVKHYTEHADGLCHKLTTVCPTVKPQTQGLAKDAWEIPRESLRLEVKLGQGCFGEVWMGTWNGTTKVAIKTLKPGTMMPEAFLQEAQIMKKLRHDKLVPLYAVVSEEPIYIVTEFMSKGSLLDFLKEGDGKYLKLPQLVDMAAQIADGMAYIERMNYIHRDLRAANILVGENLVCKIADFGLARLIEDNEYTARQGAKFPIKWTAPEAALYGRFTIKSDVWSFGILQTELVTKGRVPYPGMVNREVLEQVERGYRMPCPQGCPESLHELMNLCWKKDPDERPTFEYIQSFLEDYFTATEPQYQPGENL
Serine/threonine-protein kinase MARK2 (Homo sapiens), sequence (Q7KZI7 whole entry): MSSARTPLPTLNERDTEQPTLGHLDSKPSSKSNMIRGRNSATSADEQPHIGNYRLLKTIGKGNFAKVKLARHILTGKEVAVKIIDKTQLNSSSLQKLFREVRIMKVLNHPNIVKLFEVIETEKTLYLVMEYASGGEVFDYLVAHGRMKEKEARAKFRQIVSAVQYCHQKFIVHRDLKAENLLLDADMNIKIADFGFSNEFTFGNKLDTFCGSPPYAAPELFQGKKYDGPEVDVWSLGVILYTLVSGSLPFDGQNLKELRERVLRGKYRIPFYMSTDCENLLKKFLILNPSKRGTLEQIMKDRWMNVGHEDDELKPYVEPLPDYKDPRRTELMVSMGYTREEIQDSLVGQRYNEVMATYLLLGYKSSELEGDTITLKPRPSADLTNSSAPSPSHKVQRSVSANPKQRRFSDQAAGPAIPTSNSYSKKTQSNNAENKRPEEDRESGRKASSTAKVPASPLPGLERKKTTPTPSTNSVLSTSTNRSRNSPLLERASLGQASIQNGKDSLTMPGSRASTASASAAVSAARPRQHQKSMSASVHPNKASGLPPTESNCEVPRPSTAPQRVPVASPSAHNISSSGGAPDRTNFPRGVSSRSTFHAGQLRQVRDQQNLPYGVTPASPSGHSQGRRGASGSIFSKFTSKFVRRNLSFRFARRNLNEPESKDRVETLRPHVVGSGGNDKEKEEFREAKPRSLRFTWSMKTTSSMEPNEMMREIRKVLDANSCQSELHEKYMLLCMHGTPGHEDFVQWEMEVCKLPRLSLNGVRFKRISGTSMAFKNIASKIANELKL

The compound `CNC(=O)Nc1ccc(-c2nc(N3CC4CCC(C3)O4)c3cnn(C4CCC5(CC4)OCCO5)c3n2)cc1` registered a % of control in experiment [1] of 100%.
For `CC[C@@H]1[C@H](F)C(=O)N[C@@H]1COc1nccc2cc(C(N)=O)c(OC)cc12` [ZIMLOVISERTIB], the % of inhibition in experiment [2] was determined as 6.49%; in experiment [3] it was 3.51%; in experiment [4], 10.2%; in experiment [5], 12.7%.
For the compound `CCC(=O)N1CCN(c2ccc(-n3c(=O)ccc4cnc5ccc(-c6cnc7ccccc7c6)cc5c43)cc2C(F)(F)F)CC1`, the % of control in experiment [6] worked out at 71%.
The compound `COc1cc(N(C)c2ccnc3ccc(C(F)(F)F)cc23)cc(OC)c1OC` gave a % binding on Insulin receptor of 100%.

Source of the values: ChEMBL document CHEMBL5465560, “Selectivity Literature for EUbOPEN Chemogenomic Library” (2024).
